Experimental data as given in ChEMBL document CHEMBL1201862, “PubChem BioAssay data set” (2004).
Activity calls are given as the source filed them.

How the values were obtained:
[1] = biological target: Luciferin 4-monooxygenase (Photinus pyralis, UniProt P08659); test: firefly luciferase enzyme inhibitors, dose response, biochemical, luminescence (AID 1891)
[2] = Luminescence Cell-Based Dose Confirmation HTS to Identify Inhibitors of Platelet Dense Granule Release. [Related pubchem assays: 1663 (Primary HTS), 1678 (Summary of Project)]; type: functional
Cytochrome P450 2C9 = Cytochrome P450 2C9 (Homo sapiens, UniProt P11712)
Cytochrome P450 3A4 = Cytochrome P450 3A4 (Homo sapiens, UniProt P08684);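 also: CYP3A4 tested as one member of a cytochrome P450 panel screen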
[3] = biological target: T1, Corticotropin-releasing factor receptor 2/Corticotropin-releasing factor-binding protein (Homo sapiens, UniProt P24387+Q13324); test: Dose Response confirmation of uHTS hits for small molecule antagonists of the CRF-binding protein and CRF-R2 receptor complex.; type: functional; conditions: read-out: IC50_Mean
T1 sequence (Q13324 whole entry): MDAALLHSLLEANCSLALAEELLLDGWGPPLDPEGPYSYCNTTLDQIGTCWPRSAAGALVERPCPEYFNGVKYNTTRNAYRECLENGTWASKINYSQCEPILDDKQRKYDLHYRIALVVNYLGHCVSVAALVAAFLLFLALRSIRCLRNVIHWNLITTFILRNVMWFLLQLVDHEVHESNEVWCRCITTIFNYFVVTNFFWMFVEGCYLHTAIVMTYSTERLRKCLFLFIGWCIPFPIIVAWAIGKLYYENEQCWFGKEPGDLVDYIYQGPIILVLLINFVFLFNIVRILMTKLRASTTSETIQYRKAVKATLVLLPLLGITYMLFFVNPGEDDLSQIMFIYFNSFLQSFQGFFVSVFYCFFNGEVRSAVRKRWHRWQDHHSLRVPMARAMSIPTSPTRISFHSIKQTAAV
T1 sequence (P24387 whole entry): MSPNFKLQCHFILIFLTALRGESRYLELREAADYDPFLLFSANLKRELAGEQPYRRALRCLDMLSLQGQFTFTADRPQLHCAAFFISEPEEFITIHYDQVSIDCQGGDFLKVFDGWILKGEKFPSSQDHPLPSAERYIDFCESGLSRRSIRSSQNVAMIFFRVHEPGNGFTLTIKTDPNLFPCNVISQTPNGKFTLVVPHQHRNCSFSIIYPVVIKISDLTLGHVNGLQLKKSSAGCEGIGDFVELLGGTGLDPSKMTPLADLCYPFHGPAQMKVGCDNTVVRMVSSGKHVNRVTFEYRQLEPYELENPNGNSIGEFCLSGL

[4] = biological target: T1, Corticotropin-releasing factor receptor 2/Corticotropin-releasing factor-binding protein; test: activators of CRF receptor 2 with binding protein – uHTS hits, confirmation (AID 602473); type: functional; conditions: read-out: EC50_Mean
[5] = NIH-3T3 fibroblast cytotoxicity, dose response, cytotoxicity control, cell-based, fluorescence, Alamar Blue, secondary assay (AID 2327); type: functional;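 also: NIH-3T3 mouse fibroblasts cultured with fluconazole at 8 µg/mL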
[6] = tested on: Streptococcus sp. 'group A'; test: growth inhibition of control SK(-) GAS strain, dose response, counter-screen for streptokinase expression inhibitor project, luminescence, kanamycin, BacTiterGlo, confirmation (AID 1900); type: functional, organism-based
[7] = C. albicans growth with fluconazole, confirmation, fluorescence, retest (AID 2467); type: functional, cell-based
Streptococcus = test: Group A Streptococcus viability loss, dose response, counter-screen for streptokinase expression inhibitor project, luminescence, BacTiterGlo (AID 1915); type: functional, organism-based;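 also: potency for reduction of bacterial viability or growth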
[8] = P. falciparum Dd2 growth inhibitors, dose response, SYBR Green, cherry-picked samples (AID 1159567); type: functional, cell-based
Cytochrome P450 2C19 = Cytochrome P450 2C19 (Homo sapiens, UniProt P33261); test: Cytochrome panel assay with activity outcomes. Panel member name: p450-cyp2c19 Compounds with AC50 equal or less than 10 uM are considered active; type: functional
Cytochrome P450 1A2 = biological target: T2, Cytochrome P450 1A2 (Homo sapiens, UniProt P05177);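 also: PubChem cytochrome P450 panel assay, CYP1A2 panel member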
T2 sequence (P05177 whole entry): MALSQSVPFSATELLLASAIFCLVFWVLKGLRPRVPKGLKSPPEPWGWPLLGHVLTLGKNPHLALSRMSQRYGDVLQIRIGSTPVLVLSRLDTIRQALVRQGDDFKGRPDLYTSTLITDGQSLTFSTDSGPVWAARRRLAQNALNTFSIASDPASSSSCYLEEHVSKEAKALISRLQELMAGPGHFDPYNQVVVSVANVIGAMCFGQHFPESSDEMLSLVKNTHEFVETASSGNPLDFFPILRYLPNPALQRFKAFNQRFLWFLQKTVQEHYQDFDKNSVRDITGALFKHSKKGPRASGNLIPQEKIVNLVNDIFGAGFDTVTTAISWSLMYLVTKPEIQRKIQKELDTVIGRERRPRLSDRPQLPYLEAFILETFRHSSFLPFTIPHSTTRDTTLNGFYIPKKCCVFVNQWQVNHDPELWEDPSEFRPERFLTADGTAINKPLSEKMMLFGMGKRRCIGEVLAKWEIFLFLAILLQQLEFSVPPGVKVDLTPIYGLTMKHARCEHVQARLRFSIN

[9] = Luminescence Cell-Based Dose Confirmation HTS to Identify Activators of 5'UTR Stem-Loop Driven Alpha-Synuclein mRNA Translation in H4 Neuroglioblastoma Cells. [Related pubchem assays: 1829 (Project Summary), 1814 (Primary HTS)]; type: functional
[10] = Luminescence Cell-Based Dose Response HTS to Identify Activators of Luciferase Translation or Activity in H4 […] Cells. [Related pubchem assays: 1829 (Project Summary), 1814 (Primary HTS)]; type: functional
H4 = test: Luminescence Cell-Based Dose Response HTS to Identify Activators of 5'UTR Stem-Loop Driven Prion Protein mRNA Translation in H4 Neuroglioblastoma Cells. [Related pubchem assays: 1829 (Project Summary), 1814 (Primary HTS)]; type: functional; conditions: Homo sapiens
[11] = inhibitors of clade B AD8 Env fusion, dose response, cell-based, cherry-pick (AID 652062); type: functional;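 also: luciferase signal from cell-cell fusion driven by HIV-1 clade B AD8 Env; potency is for inhibitors of fusion seen as a drop in luminescence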

Luciferin 4-monooxygenase, sequence (P08659 whole entry): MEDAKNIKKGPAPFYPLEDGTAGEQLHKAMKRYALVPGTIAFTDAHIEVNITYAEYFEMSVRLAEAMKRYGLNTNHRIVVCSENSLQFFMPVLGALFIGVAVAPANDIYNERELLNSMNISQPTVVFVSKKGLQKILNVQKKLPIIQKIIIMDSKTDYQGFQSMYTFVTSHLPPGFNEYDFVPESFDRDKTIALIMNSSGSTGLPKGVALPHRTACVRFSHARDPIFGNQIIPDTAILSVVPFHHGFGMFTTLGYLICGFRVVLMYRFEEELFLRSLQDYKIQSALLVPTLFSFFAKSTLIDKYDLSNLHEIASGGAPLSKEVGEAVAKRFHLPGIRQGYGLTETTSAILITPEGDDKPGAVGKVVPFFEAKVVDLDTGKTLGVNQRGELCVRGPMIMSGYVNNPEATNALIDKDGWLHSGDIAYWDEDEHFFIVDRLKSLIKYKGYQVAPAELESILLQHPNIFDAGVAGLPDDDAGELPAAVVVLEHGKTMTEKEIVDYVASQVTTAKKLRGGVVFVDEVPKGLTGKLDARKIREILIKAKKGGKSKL
Cytochrome P450 2C19, sequence (P33261 whole entry): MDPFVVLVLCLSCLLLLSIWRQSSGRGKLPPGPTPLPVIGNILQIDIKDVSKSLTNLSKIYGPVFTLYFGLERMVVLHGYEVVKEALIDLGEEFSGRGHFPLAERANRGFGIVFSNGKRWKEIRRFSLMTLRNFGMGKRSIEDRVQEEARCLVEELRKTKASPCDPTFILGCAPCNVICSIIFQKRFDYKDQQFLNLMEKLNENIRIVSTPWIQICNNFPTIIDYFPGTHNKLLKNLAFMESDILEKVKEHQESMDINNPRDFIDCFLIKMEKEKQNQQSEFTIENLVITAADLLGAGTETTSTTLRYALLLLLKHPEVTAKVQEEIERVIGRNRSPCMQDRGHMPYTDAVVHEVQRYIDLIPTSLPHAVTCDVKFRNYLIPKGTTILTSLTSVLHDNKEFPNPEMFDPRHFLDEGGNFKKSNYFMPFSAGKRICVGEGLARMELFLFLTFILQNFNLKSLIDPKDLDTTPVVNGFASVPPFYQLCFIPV
Cytochrome P450 2C9, sequence (P11712 whole entry): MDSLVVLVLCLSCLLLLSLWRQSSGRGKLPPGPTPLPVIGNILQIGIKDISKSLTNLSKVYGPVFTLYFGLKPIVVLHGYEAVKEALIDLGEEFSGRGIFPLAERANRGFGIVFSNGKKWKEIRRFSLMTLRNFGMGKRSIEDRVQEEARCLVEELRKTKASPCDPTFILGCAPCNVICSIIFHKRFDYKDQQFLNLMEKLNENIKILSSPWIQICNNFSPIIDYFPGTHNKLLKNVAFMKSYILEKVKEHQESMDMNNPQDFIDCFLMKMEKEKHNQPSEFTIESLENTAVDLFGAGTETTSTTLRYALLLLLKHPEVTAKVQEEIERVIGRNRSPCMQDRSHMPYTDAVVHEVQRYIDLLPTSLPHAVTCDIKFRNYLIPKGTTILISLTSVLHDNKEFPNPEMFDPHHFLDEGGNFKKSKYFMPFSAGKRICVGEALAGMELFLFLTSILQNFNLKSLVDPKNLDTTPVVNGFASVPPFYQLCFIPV
Cytochrome P450 3A4, sequence (P08684 whole entry): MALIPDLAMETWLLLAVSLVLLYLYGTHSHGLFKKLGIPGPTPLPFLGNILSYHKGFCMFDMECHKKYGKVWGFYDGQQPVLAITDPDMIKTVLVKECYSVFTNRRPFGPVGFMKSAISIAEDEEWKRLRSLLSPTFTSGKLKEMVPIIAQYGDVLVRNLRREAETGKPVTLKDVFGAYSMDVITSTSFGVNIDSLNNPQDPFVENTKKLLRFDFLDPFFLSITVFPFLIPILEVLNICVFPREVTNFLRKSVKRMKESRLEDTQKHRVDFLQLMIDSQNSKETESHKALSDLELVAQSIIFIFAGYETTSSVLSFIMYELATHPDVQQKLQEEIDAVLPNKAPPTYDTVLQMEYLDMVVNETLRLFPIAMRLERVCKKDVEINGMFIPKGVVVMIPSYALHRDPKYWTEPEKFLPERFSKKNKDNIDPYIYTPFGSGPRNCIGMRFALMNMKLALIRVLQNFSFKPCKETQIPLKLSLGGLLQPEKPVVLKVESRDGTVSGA

## CCOC(=O)c1cnc2c([N+](=O)[O-])cnn2c1C
[1]
  EC50: > 112 µM (not active)
[2]
  EC50: > 112 µM (not active)

## CCOc1ccccc1NC(=O)CN1CCC(NC(=O)c2ccccc2)CC1
Cytochrome P450 2C9
  AC50: inconclusive

## COc1ccccc1NC(=O)c1cnc2n(c1=O)CCS2
Cytochrome P450 3A4
  AC50: 31.6 µM (inconclusive)
Cytochrome P450 2C9
  AC50: inconclusive

## Cc1ccc(-c2csc3nnc(SCC(=O)N4CCN(Cc5ccccc5)CC4)n23)cc1
[3]
  IC50: > 47.1 µM (inactive)
[4]
  EC50: > 53 µM (inactive)

## O=C(CN1C(=O)NC2(CCCC2)C1=O)c1ccc(Cl)s1
[3]
  IC50: > 47.1 µM (inactive)
[4]
  EC50: > 53 µM (inactive)

## CCc1ccc(OCC(=O)NNC(=S)NC(=O)C2CCCCC2)c(Br)c1
[5]
  EC50: > 150 µM (inactive)
[6]
  EC50: < 0.06 µM (active)
[7]
  EC50: 2.33 µM (active)
Streptococcus
  EC50: 3.91 µM (active)

## O=C(NCc1ccc2c(c1)OCO2)C1CCN(S(=O)(=O)c2ccc(F)cc2)CC1
[1]
  EC50: > 112 µM (not active)
[2]
  EC50: > 112 µM (not active)

## O=C(CCCCCN1C(=O)c2cccc3cccc(c23)C1=O)N1CCOCC1
[5]
  EC50: 22.3 µM (active)
[7]
  EC50: > 38 µM (not active)

## Clc1nccnc1N/N=C/c1ccc(Br)cc1
[1]
  EC50: 2.82 µM (active)
[2]
  EC50: 4.81 µM (active)

## Cc1ccc(CNC(=O)CCS(=O)(=O)c2ccc(Br)s2)o1
[1]
  EC50: > 112 µM (not active)
[2]
  EC50: > 112 µM (not active)

## COC(=O)c1nn(-c2ccccc2)c(Sc2ccc(OC)cc2)c1/C=N/O
[1]
  EC50: > 112 µM (not active)
[2]
  EC50: 28.5 µM (active)

## N#C[C@@H]1[C@H](c2ccccc2-c2cccc(F)c2)[C@@H](CO)N1C(=O)C1CCCC1
[8]
  AC50: 4.79 µM (active)

## COc1ccc(CCNC(=O)CSc2nc(N)c3c(C)c(C)oc3n2)cc1OC
[1]
  EC50: > 112 µM (not active)
[2]
  EC50: > 112 µM (not active)

## COc1cccc(Nc2ncc3nc(-c4cn(C)c5ccccc45)c(=O)n(C[C@H]4CCCO4)c3n2)c1
Cytochrome P450 2C9
  AC50: inconclusive

## O=C1c2ccccc2C(Nc2ccc(Cl)cn2)N1c1ccccn1 (stereo not drawn)
[1]
  EC50: > 112 µM (not active)
[2]
  EC50: > 112 µM (not active)

## O=C(/C=C/c1ccccc1)NC(=S)Nc1ccc(N2CCOCC2)c(Cl)c1
[5]
  EC50: > 160 µM (inactive)
[7]
  EC50: 5.76 µM (active)

## CCCCNC(=O)CCc1nc2cccnc2n1Cc1ccc(OC)cc1
[3]
  IC50: > 47.1 µM (inactive)
[4]
  EC50: > 53 µM (inactive)

## COc1ccc(CNc2oc(COc3ccccc3)nc2C#N)cc1
[3]
  IC50: > 47.1 µM (inactive)
[4]
  EC50: > 53 µM (inactive)

## Cc1noc(C)c1C(=O)N1CCC2(CCN(Cc3ccccc3)CC2)CC1
Cytochrome P450 2C9
  AC50: inconclusive

## COc1ccccc1CNC(=O)C[C@H]1C[C@H]2c3cc(NC(=O)Cc4ccncc4)ccc3O[C@H]2[C@H](CO)O1
[8]
  AC50: 5.4 µM (active)

## C/C(CC(=O)Nc1cc(Cl)ccc1Cl)=N\NC(N)=S
Cytochrome P450 2C19; read-out: AC50
  AC50: 28.2 µM (inconclusive)
Cytochrome P450 1A2
  AC50: 12.6 µM (inconclusive)
Cytochrome P450 2C9
  AC50: inconclusive

## CCc1ccc(N2C(=O)c3ccc4c5c(ccc(c35)C2=O)CC4)cc1
Cytochrome P450 2C9
  AC50: inconclusive

## Cc1ccc2oc(-c3cccc(NC(=O)C4CCCO4)c3)nc2c1 (stereo not drawn)
[1]
  EC50: 26.6 µM (active)
[2]
  EC50: > 112 µM (not active)

## COc1ccccc1C#Cc1ccc2c(c1)[C@H]1[C@H](CCN1C(=O)CN1CCOCC1)[C@@H](CO)N2
[8]
  AC50: 5.01 µM (active)

## Cc1ccc(OCn2c(=O)sc3ccccc32)cc1
[9]
  EC50: 42 µM (active)
[10]
  EC50: 35.3 µM (active)
H4
  EC50: 14 µM (active)
[3]
  IC50: > 47.1 µM (inactive)
[4]
  EC50: > 53 µM (inactive)

## CC1CCC(NC(=O)CCN2C(=O)C3CC=CCC3C2=O)CC1 (stereo not drawn)
[3]
  IC50: > 47.1 µM (inactive)
[4]
  EC50: > 53 µM (inactive)

## Cn1nnnc1SCC(=O)NC1CCCc2ccccc21 (stereo not drawn)
[1]
  EC50: > 112 µM (not active)
[2]
  EC50: > 112 µM (not active)

## C=CCn1c(C)cc(C(=O)CSc2nnc(Cc3ccccc3)o2)c1C
[3]
  IC50: > 47.1 µM (inactive)
[4]
  EC50: > 53 µM (inactive)

## O=c1cc(Cc2ccc([N+](=O)[O-])cc2)[nH]c(=O)[nH]1
[3]
  IC50: > 47.1 µM (inactive)
[4]
  EC50: > 53 µM (inactive)

## O=C(c1cc(C(F)(F)F)cc(C(F)(F)F)c1)N1CCC2(CC1)CCN(c1ncccn1)CC2
Cytochrome P450 2C9
  AC50: inconclusive

## Cc1nc2ccccn2c1C(=O)N/N=C/c1ccccc1[N+](=O)[O-]
Cytochrome P450 2C9
  AC50: inconclusive

## CC(C)Nc1nc(NC(C)(C)C)nc(Oc2ccc(=O)n(-c3ccccc3)n2)n1
[1]
  EC50: > 112 µM (not active)
[2]
  EC50: > 112 µM (not active)
Cytochrome P450 2C19
  AC50: inconclusive
Cytochrome P450 3A4
  AC50: 12.6 µM (inconclusive)

## CCN1C(=O)[C@H]2[C@@H](c3ccc(C(F)(F)F)cc3)N[C@]3(CCCN(Cc4ccccc4)C3=O)[C@H]2C1=O
[11]
  AC50: 0.682 µM (active)

## COc1ccc(C#Cc2ccc([C@@H]3[C@@H](CO)N4CCCCN(C(=O)Nc5ccccc5F)C[C@@H]34)cc2)cc1
[8]
  AC50: 8.08 µM (active)

## N#Cc1ccccc1Sc1ccccc1N
[3]
  IC50: > 47.1 µM (inactive)
[4]
  EC50: > 53 µM (inactive)
Cytochrome P450 1A2
  AC50: 22.4 µM (inconclusive)

## Cc1cc2ccccc2c(=O)n1CC(=O)NCC(=O)N1CCCC1
Cytochrome P450 2C9
  AC50: inconclusive

## COCc1nnc(NC(=O)c2ccc(S(=O)(=O)N3CCCc4ccccc43)cc2)o1
[5]
  EC50: > 150 µM (inconclusive)
[7]
  EC50: 2.96 µM (active)

## COc1cc(OC)c(C#N)c(S(=O)(=O)Cc2ccccc2)c1
Cytochrome P450 2C9
  AC50: inconclusive

## CCOc1ccc(NC(=O)CCCN2C(=O)C(c3ccccc3)Oc3cccnc32)cc1 (stereo not drawn)
[3]
  IC50: > 47.1 µM (inactive)
[4]
  EC50: > 53 µM (inactive)

## CN(C)c1ccnc(-c2cccc(NS(C)(=O)=O)c2)n1
Cytochrome P450 3A4
  AC50: 31.6 µM (inconclusive)
Cytochrome P450 2C9
  AC50: inconclusive

## Cc1ccccc1C(=O)NC(=S)NCC(=O)c1ccccc1
Cytochrome P450 3A4
  AC50: 28.2 µM (inconclusive)
Cytochrome P450 2C9
  AC50: inconclusive

## CCCNC(=O)COC(=O)/C=C/c1ccco1
[1]
  EC50: > 112 µM (not active)
[2]
  EC50: > 112 µM (not active)

## COc1ccc(CC(=S)N2CCOCC2)cc1OC
Cytochrome P450 2C9
  AC50: inconclusive

## COc1ccc(/C=C2\SC(=S)N(CC(=O)NCCO)C2=O)cc1
[3]
  IC50: > 47.1 µM (inactive)
[4]
  EC50: > 53 µM (inactive)

## Cc1ccc(S(=O)(=O)n2nnc3ccccc32)c(C)c1C
[3]
  IC50: > 47.1 µM (inactive)
[4]
  EC50: > 53 µM (inactive)

## CN(C)c1nc(C#N)nc(N2CCOCC2)n1
Cytochrome P450 2C19
  AC50: inconclusive
Cytochrome P450 2C9
  AC50: inconclusive

## O=C(c1ccccc1F)N1CC(=O)N2[C@H](C1)[C@H](c1ccc(-c3ccccc3)cc1)[C@@H]2CO
[8]
  AC50: 5.6 µM (active)
